Drawing on patent US20140315933A1, “CHEMICAL COMPOUNDS” (Pfizer Limited, priority 2013, published 2014), this text covers IC50 for 39 compounds.

Structures can show the parent of a compound that is named as a salt.

T1 sequence (Q96S37 with tags, fused parts or gaps): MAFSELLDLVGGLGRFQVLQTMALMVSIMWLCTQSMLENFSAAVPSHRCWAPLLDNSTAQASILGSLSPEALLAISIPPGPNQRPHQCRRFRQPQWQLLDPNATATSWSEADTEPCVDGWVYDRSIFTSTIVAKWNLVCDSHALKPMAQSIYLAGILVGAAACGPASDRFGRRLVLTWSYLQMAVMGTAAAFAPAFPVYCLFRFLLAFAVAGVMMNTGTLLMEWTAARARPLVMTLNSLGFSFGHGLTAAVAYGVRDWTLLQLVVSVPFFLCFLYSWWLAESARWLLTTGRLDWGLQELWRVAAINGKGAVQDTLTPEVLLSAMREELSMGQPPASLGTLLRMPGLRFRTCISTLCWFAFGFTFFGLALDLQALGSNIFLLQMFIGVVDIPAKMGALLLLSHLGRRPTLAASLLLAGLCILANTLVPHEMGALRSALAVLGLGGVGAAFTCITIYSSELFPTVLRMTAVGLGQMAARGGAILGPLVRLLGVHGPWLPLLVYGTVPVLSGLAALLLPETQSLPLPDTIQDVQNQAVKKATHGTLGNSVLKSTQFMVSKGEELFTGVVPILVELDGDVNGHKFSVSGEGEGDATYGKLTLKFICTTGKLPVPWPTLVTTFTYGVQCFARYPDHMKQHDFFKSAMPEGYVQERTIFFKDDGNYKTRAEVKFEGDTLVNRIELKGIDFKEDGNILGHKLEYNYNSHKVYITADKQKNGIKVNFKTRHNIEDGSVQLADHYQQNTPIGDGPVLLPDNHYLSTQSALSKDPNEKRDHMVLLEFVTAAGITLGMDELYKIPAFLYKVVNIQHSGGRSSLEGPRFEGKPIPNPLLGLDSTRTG

The assay concerns the target T1, URAT-1 transporter (Homo sapiens, UniProt Q96S37).
T1 construct: expressed in transfected cells
Briefly: URAT-1 inhibitor activity: [14C]-uric acid uptake into CHO-URAT1(L)GFP#8 (CHO#8) cells, scintillation proximity. Format: cell-based. In short, it runs like this:
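Scintillation proximity read-out of 30 nM (final) [14C]-uric acid uptake over three hours at room temperature in chloride-free HEPES buffer pH 7.4. Compounds, 0–10 μM final with 0.25% DMSO, were added 15 minutes before substrate; cells were a clonal CHO line with human URAT1(L)-eGFP, preincubated 1 hour in chloride buffer.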
As to `N#Cc1cc(S(=O)(=O)Nc2ncc(F)s2)ccc1Oc1ccc(Cl)c(C(F)(F)F)c1` [Example 141, 4-[4-chloro-3-(trifluoromethyl)phenoxy]-3-cyano-N-(5-fluoro-1,3-thiazol-2-yl)benzenesulfonamide], the IC50 worked out at 737 nM. For the compound `CCc1cc(Oc2ccc(S(=O)(=O)Nc3ncc(F)s3)cc2C#N)ccc1Cl` [Example 142, 4-(4-chloro-3-ethylphenoxy)-3-cyano-N-(5-fluoro-1,3-thiazol-2-yl)benzenesulfonamide], the IC50 is 540 nM. In the case of `N#Cc1cc(S(=O)(=O)Nc2ncc(F)s2)ccc1Oc1ccc(F)c(C(F)(F)F)c1` [Example 143, 3-cyano-N-(5-fluoro-1,3-thiazol-2-yl)-4-[4-fluoro-3-(trifluoromethyl)phenoxy]benzenesulfonamide], the IC50 came to 566 nM. `N#Cc1cc(S(=O)(=O)Nc2ncc(F)s2)ccc1Oc1ccc(CCO)cc1I` [Example 145, 3-cyano-N-(5-fluoro-1,3-thiazol-2-yl)-4-[4-(2-hydroxyethyl)-2-iodophenoxy]benzene-sulfonamide] showed an IC50 of 803 nM.

Take `N#Cc1cc(S(=O)(=O)Nc2ncc(F)s2)ccc1Oc1ccc(CCO)cc1` [Example 146, 3-cyano-N-(5-fluoro-1,3-thiazol-2-yl)-4-[4-(2-hydroxyethyl)phenoxy]benzenesulfonamide]: the IC50 is more than 10000 nM.

`N#Cc1cc(S(=O)(=O)Nc2ncc(F)s2)ccc1Oc1ccc(CCCO)cc1` [Example 147, 3-cyano-N-(5-fluoro-1,3-thiazol-2-yl)-4-[4-(3-hydroxypropyl)phenoxy]benzenesulfonamide] had an IC50 of more than 10000 nM. `N#Cc1cc(S(=O)(=O)Nc2cscn2)ccc1Oc1ccc(Cl)cc1OC(F)F` [Example 148, 4-[4-chloro-2-(difluoromethoxy)phenoxy]-3-cyano-N-(1,3-thiazol-4-yl)benzenesulfonamide] came in with an IC50 of 118 nM.

As to `O=S(=O)(Nc1cscn1)c1cc(Cl)c(Oc2ccc(F)cc2I)cc1F` [Example 149, 5-chloro-2-fluoro-4-(4-fluoro-2-iodophenoxy)-N-(1,3-thiazol-4-yl)benzenesulfonamide], the IC50 was determined as 494 nM. Compound `COc1cc(Cl)ccc1Oc1cc(F)c(S(=O)(=O)Nc2nncs2)cc1Cl` [Example 150, 5-chloro-4-(4-chloro-2-methoxyphenoxy)-2-fluoro-N-(1,3,4-thiadiazol-2-yl)benzenesulfonamide] had an IC50 of 2510 nM. This IC50 is about 5.1-fold higher than that of the compound before. In the case of `O=S(=O)(Nc1ncns1)c1cc(Cl)c(Oc2ccc(Cl)cc2OC(F)(F)F)cc1F` [Example 151, 5-chloro-4-[4-chloro-2-(trifluoromethoxy)phenoxy]-2-fluoro-N-(1,2,4-thiadiazol-5-yl)benzenesulfonamide], it took 508 nM to reach half-maximal inhibition (IC50). Against the preceding compound, the IC50 is about 4.9-fold lower. As to `O=S(=O)(Nc1nncs1)c1cc(Cl)c(Oc2ccc(Cl)cc2OC(F)F)cc1F` [Example 152, 5-chloro-4-[4-chloro-2-(difluoromethoxy)phenoxy]-2-fluoro-N-(1,3,4-thiadiazol-2-yl)benzenesulfonamide], the 50% inhibitory concentration (IC50) was more than 10000 nM. With `COc1cc(Cl)ccc1Oc1cc(F)c(S(=O)(=O)Nc2ncns2)cc1Cl` [Example 154, 5-chloro-4-(4-chloro-2-methoxyphenoxy)-2-fluoro-N-(1,2,4-thiadiazol-5-yl)benzenesulfonamide], the IC50 turned out to be 1630 nM. In turn, `N#Cc1ccc(Oc2cc(F)c(S(=O)(=O)Nc3ncns3)cc2Cl)c(OC(F)F)c1` [Example 155, 5-chloro-4-[4-cyano-2-(difluoromethoxy)phenoxy]-2-fluoro-N-(1,2,4-thiadiazol-5-yl)benzenesulfonamide diethylamine salt] displayed a half-maximal inhibitory concentration (IC50) of more than 7250 nM. The compound `N#Cc1ccc(OC(F)F)c(Oc2cc(F)c(S(=O)(=O)Nc3ncns3)cc2Cl)c1` [Example 156, 5-chloro-4-[5-cyano-2-(difluoromethoxy)phenoxy]-2-fluoro-N-(1,2,4-thiadiazol-5-yl)benzenesulfonamide diethylamine salt] gave an IC50 of 3430 nM. In turn, `COc1cc(Cl)cc(Cl)c1Oc1cc(F)c(S(=O)(=O)Nc2nncs2)cc1Cl` [Example 157, 5-chloro-4-(2,4-dichloro-6-methoxyphenoxy)-2-fluoro-N-(1,3,4-thiadiazol-2-yl)benzenesulfonamide diethylamine salt] yielded an IC50 of 2880 nM. The IC50 values of the last two compounds are within 1.5-fold of each other. For the compound `O=S(=O)(Nc1cscn1)c1cc(Cl)c(Oc2cc(Cl)ccc2OC(F)F)cc1F` [Example 158, 5-chloro-4-[5-chloro-2-(difluoromethoxy)phenoxy]-2-fluoro-N-(1,3-thiazol-4-yl)benzenesulfonamide], the midpoint of inhibition, the IC50, lay at 3210 nM. Compound `O=S(=O)(Nc1cscn1)c1cc(Cl)c(Oc2ccc(Cl)cc2OC(F)F)cc1F` [Example 159, 5-chloro-4-[4-chloro-2-(difluoromethoxy)phenoxy]-2-fluoro-N-(1,3-thiazol-4-yl)benzenesulfonamide] yielded an IC50 of 499 nM.

Consider `O=S(=O)(Nc1cscn1)c1cc(Cl)c(Oc2cc(C(F)(F)F)ccc2I)cc1F` [Example 160, 5-chloro-2-fluoro-4-[2-iodo-5-(trifluoromethyl)phenoxy]-N-(1,3-thiazol-4-yl)benzene-sulfonamide], for which the IC50 was 347 nM.

As to `O=S(=O)(Nc1cscn1)c1cc(Cl)c(Oc2ccc(C(F)(F)F)cc2Br)cc1F` [Example 161, 4-[2-bromo-4-(trifluoromethyl)phenoxy]-5-chloro-2-fluoro-N-(1,3-thiazol-4-yl)benzenesulfonamide], the IC50 was more than 4850 nM. Next, `CN(C)c1ccc(Oc2ccc(S(=O)(=O)Nc3nccs3)cc2C#N)cn1` [Example 186, 3-cyano-4-{[6-(dimethylamino)pyridin-3-yl]oxy}-N-(1,3-thiazol-2-yl)benzenesulfonamide]: 1080 nM; `CNc1ccc(Oc2ccc(S(=O)(=O)Nc3nccs3)cc2C#N)cn1` [Example 187, 3-cyano-4-{[6-(methylamino)pyridin-3-yl]oxy}-N-(1,3-thiazol-2-yl)benzenesulfonamide]: more than 6640 nM. Next, `CC(C)Nc1ccc(Oc2ccc(S(=O)(=O)Nc3nccs3)cc2C#N)cn1` [Example 188, 3-cyano-4-{[6-(propan-2-ylamino)pyridin-3-yl]oxy}-N-(1,3-thiazol-2-yl)benzenesulfonamide]: 688 nM. The compound `CCNc1ccc(Oc2ccc(S(=O)(=O)Nc3nccs3)cc2C#N)cn1` [Example 189, 3-cyano-4-{[6-(ethylamino)pyridin-3-yl]oxy}-N-(1,3-thiazol-2-yl)benzenesulfonamide] yielded an IC50 of more than 10000 nM. Consider `N#Cc1cc(S(=O)(=O)Nc2nccs2)ccc1Oc1ccc(OCC(F)(F)F)nc1` [Example 190, 3-cyano-N-(1,3-thiazol-2-yl)-4-{[6-(2,2,2-trifluoroethoxy)pyridin-3-yl]oxy}benzenesulfonamide], for which the IC50 was more than 10000 nM.

Turning to `CCOc1ccc(Oc2ccc(S(=O)(=O)Nc3nccs3)cc2C#N)cn1` [Example 191, 3-cyano-4-[(6-ethoxypyridin-3-yl)oxy]-N-(1,3-thiazol-2-yl)benzenesulfonamide], the IC50 was more than 10000 nM.

Compound `CC(C)Oc1ccc(Oc2ccc(S(=O)(=O)Nc3nccs3)cc2C#N)cn1` [Example 192, 3-cyano-4-{[6-(propan-2-yloxy)pyridin-3-yl]oxy}-N-(1,3-thiazol-2-yl)benzenesulfonamide] came in with an IC50 of more than 10000 nM. On to `N#Cc1cc(S(=O)(=O)Nc2nccs2)ccc1Oc1ccc(F)c(F)c1` [Example 243, 3-cyano-4-(3,4-difluorophenoxy)-N-(1,3-thiazol-2-yl)benzenesulfonamide], for which half-maximal inhibition (IC50) required 77 nM. `N#Cc1ccc(Oc2ccc(S(=O)(=O)Nc3ncc(F)s3)cc2C#N)cc1Cl` [Example 244, 4-(3-chloro-4-cyanophenoxy)-3-cyano-N-(5-fluoro-1,3-thiazol-2-yl)benzenesulfonamide] showed an IC50 of 365 nM.

`N#Cc1cc(Oc2ccc(S(=O)(=O)Nc3ncc(F)s3)cc2C#N)ccc1F` [Example 245, 3-cyano-4-(3-cyano-4-fluorophenoxy)-N-(5-fluoro-1,3-thiazol-2-yl)benzenesulfonamide] yielded an IC50 of 2000 nM. Against the preceding compound, the IC50 is about 5.5-fold higher.

`N#Cc1cc(Oc2ccc(S(=O)(=O)Nc3nccs3)cc2C#N)ccc1F` [Example 246, 3-cyano-4-(3-cyano-4-fluorophenoxy)-N-(1,3-thiazol-2-yl)benzenesulfonamide]: the IC50 is 699 nM. The compound `N#Cc1ccc(Oc2ccc(S(=O)(=O)Nc3ncc(Cl)s3)cc2C#N)cc1Cl` [Example 247, 4-(3-chloro-4-cyanophenoxy)-N-(5-chloro-1,3-thiazol-2-yl)-3-cyanobenzenesulfonamide] returned an IC50 of 450 nM. Compound `N#Cc1cc(S(=O)(=O)Nc2ncc(F)s2)ccc1Oc1ccc(F)c(F)c1` [Example 248, 3-cyano-4-(3,4-difluorophenoxy)-N-(5-fluoro-1,3-thiazol-2-yl)benzenesulfonamide] showed an IC50 of more than 1200 nM. In turn, `O=S(=O)(Nc1nncs1)c1ccc(Oc2ccc(F)c(F)c2)cc1Cl` [Example 249, 2-chloro-4-(3,4-difluorophenoxy)-N-(1,3,4-thiadiazol-2-yl)benzenesulfonamide] returned an IC50 of more than 10000 nM. Consider `N#Cc1ccc(Oc2c(F)cc(S(=O)(=O)Nc3ncns3)cc2Br)cc1Cl` [Example 250, 3-bromo-4-(3-chloro-4-cyanophenoxy)-5-fluoro-N-(1,2,4-thiadiazol-5-yl)benzenesulfonamide], for which it took 1880 nM to reach half-maximal inhibition (IC50). In turn, `CC(C)Oc1ncc(Oc2ccc(S(=O)(=O)Nc3nncs3)cc2C#N)cc1Cl` [Example 333] registered a half-inhibitory concentration (IC50) of 7540 nM.

The compound `N#Cc1cc(S(=O)(=O)Nc2nncs2)ccc1Oc1cnc(OC(F)F)c(Cl)c1` [Example 334] came in with a 50% inhibitory concentration (IC50) of 2030 nM. On to `CC(Oc1ncc(Oc2ccc(S(=O)(=O)Nc3nncs3)cc2C#N)cc1Cl)C(F)(F)F` (stereo not drawn) [Example 335], for which the IC50 is 3260 nM. On to `N#Cc1cc(S(=O)(=O)Nc2nncs2)ccc1Oc1cnc(OC2CCC2)c(Cl)c1` [Example 336], for which the IC50 was 3910 nM. On to `Cc1cc(Oc2ccc(S(=O)(=O)Nc3nncs3)cc2C#N)cc(C)c1C#N` [Example 337, 3-cyano-4-(4-cyano-3,5-dimethylphenoxy)-N-(1,3,4-thiadiazol-2-yl)benzenesulfonamide], for which half-maximal inhibition (IC50) required 112 nM.
